Read-outs that look alike come from different tables or passages of the source. Positions of bridges follow the written chain, without caps; N, C: chain ends. Non-standard residues stand in square brackets, D forms with d. Residues, ends and D or L forms follow the SMILES beside them. Trp(7-Me) = Cc1cccc2c(C[C@H](N)C(=O)O)c[nH]c12; Phe(3,5-F2) = N[C@@H](Cc1cc(F)cc(F)c1)C(=O)O; Bta = N[C@@H](Cc1csc2ccccc12)C(=O)O; Hyp = O=C(O)[C@@H]1C[C@@H](O)CN1; NMeF = CN[C@@H](Cc1ccccc1)C(=O)O; dHyp = O=C(O)[C@H]1C[C@H](O)CN1; NMeNle = CCCC[C@H](NC)C(=O)O; NMeA = CN[C@@H](C)C(=O)O; Dap = NC[C@H](N)C(=O)O; Sar = CNCC(=O)O
Columns and labels:
Human PD-L1/PD-1 = molecular target: T1, Human PD-L1/PD-1 (Homo sapiens, UniProt Q9NZQ7); assay: HTRF PD-1-Ig/PD-L1-His binding assay (human PD-L1); conditions: cluster symbol; read-out: HTRF IC50 cluster
T1 construct: made in house; host or cells: HEK293T
Summary of the method: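 Soluble PD-1-Ig binding to PD-L1-His measured by HTRF in dPBS with 0.1% BSA and 0.05% Tween-20. Detection used europium cryptate anti-Ig antibody (1 nM final) and APC anti-His antibody (20 nM final) added on top of the binding reaction.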

[1] = molecular target: T2, LK35.2-hPD-L1 cells / PE-labeled PD-1-Ig (Homo sapiens, UniProt Q9NZQ7); assay: LK35.2-hPD-L1 cell binding high-content screening assay; format: cell-based; conditions: cluster symbol, read-out: CBA IC50 cluster
T2 construct: expressed in transfected cells; host or cells: LK35.2 mouse B cell line
Summary of the method: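 Binding of PE-conjugated human PD-1-Ig (1 nM final) to human PD-L1 stably expressed on a mouse B-cell line (LK35.2) was measured by high-content imaging after washes. Compound and labeled PD-1-Ig were co-incubated 1 h at 37 °C with cells in RPMI/10% FCS.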

[2] = cell binding assay, cell line not given
[3] = cell line of CBA not given (LK35.2-hPD-L1 or 293T-hPD-L1)

T2 sequence (Q9NZQ7 19-290): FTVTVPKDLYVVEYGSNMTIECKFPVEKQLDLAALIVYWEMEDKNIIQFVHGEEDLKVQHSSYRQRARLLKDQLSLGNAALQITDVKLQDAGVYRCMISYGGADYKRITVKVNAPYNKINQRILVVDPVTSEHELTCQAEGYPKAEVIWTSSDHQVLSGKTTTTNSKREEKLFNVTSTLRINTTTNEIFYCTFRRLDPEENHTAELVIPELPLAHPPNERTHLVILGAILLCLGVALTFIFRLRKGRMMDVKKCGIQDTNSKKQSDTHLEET
T1 sequence (Q9NZQ7 with tags, fused parts or gaps): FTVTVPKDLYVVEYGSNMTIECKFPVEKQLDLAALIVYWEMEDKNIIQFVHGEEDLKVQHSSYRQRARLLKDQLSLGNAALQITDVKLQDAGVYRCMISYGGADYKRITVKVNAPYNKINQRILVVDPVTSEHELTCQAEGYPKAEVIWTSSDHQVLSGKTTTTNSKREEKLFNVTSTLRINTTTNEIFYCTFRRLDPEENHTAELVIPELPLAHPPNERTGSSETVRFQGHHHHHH

IC50 (Human PD-L1/PD-1) [nM]	IC50 [1, 2] [nM]	IC50 [1, 3] [nM]	Structure (SMILES)
6.76 to 30.3	4.78 to 72.9		CCCC[C@H]1C(=O)N(C)CC(=O)N[C@@H](CC(=O)O)C(=O)N[C@@H](C(C)C)C(=O)N(C)[C@@H](Cc2ccccc2)C(=O)N[C@@H](Cc2ccc(O)cc2)C(=O)N2C[C@@H](O)C[C@@H]2C(=O)N[C@@H](Cc2c[nH]c3ccccc23)C(=O)N[C@@H](Cc2ccc(O)cc2)C(=O)N[C@@H](CC(C)C)C(=O)N[C@H](C(=O)NCC(N)=O)CSCC(=O)N[C@@H](Cc2ccccc2)C(=O)N(C)[C@@H](Cc2ccccc2)C(=O)N1C [Example 3576] ({CH2CO}-F[NMeF][NMeNle][Sar]DV[NMeF]Y[dHyp]WYLCG-NH2; thioether N-13)
> 30.5		4.78 to 72.9	CCCC[C@H]1C(=O)N(C)[C@@H](CCCC)C(=O)N[C@@H](CCCNC(=N)N)C(=O)N[C@H](C(=O)NCC(N)=O)CSCC(=O)N[C@@H](Cc2ccc(O)cc2)C(=O)N(C)[C@@H](C)C(=O)N[C@@H](CC(N)=O)C(=O)N2CCC[C@H]2C(=O)N[C@@H](Cc2cnc[nH]2)C(=O)N[C@@H](CC(C)C)C(=O)N2CCC[C@H]2C(=O)N[C@@H](Cc2c[nH]c3ccccc23)C(=O)N[C@@H](CO)C(=O)N[C@@H](Cc2c[nH]c3c(C)cccc23)C(=O)N1C [Example 1144] ({CH2CO}-Y[NMeA]NPHLPWS[Trp(7-Me)][NMeNle][NMeNle]RCG-NH2; thioether N-14)
6.76 to 30.3	4.78 to 72.9		CCCC[C@H]1C(=O)N(C)[C@@H](CCCC)C(=O)N[C@@H](CCCNC(=N)N)C(=O)N[C@H](C(=O)NCC(N)=O)CSCC(=O)N[C@@H](Cc2cc(F)cc(F)c2)C(=O)N(C)[C@@H](C)C(=O)N[C@@H](CC(N)=O)C(=O)N2CCC[C@H]2C(=O)N[C@@H](CN)C(=O)N[C@@H](CC(C)C)C(=O)N2C[C@H](O)C[C@H]2C(=O)N[C@@H](Cc2c[nH]c3ccccc23)C(=O)N[C@@H](CO)C(=O)N[C@@H](Cc2c[nH]c3ccccc23)C(=O)N1C [Example 7043] ({CH2CO}-[Phe(3,5-F2)][NMeA]NP[Dap]L[Hyp]WSW[NMeNle][NMeNle]RCG-NH2; thioether N-14)
6.76 to 30.3		0.158 to 4.71	CCCC[C@H]1C(=O)N(C)[C@@H](CCCC)C(=O)N[C@@H](CCCNC(=N)N)C(=O)N[C@H](C(=O)NCC(N)=O)CSCC(=O)N[C@@H](Cc2ccc(O)cc2)C(=O)N(C)[C@@H](C)C(=O)N[C@@H](CC(=O)O)C(=O)N2CCC[C@H]2C(=O)N[C@@H](Cc2cnc[nH]2)C(=O)N[C@@H](CC(C)C)C(=O)N2CCC[C@H]2C(=O)N[C@@H](Cc2c[nH]c3ccccc23)C(=O)N[C@@H](CO)C(=O)N[C@@H](Cc2c[nH]c3ccccc23)C(=O)N1C [Example 1122] ({CH2CO}-Y[NMeA]DPHLPWSW[NMeNle][NMeNle]RCG-NH2; thioether N-14)
> 30.5		> 74.3	CCCC[C@H]1C(=O)N(C)CC(=O)N[C@@H](CC(=O)O)C(=O)N[C@@H](CCC(=O)O)C(=O)N(C)[C@@H](Cc2ccccc2)C(=O)N[C@@H](Cc2ccc(O)cc2)C(=O)N(C)CC(=O)N[C@@H](Cc2c[nH]c3ccccc23)C(=O)N[C@@H](Cc2ccc(O)cc2)C(=O)N[C@@H](CC(C)C)C(=O)N[C@H](C(=O)NCC(N)=O)CSCC(=O)N[C@@H](Cc2ccccc2)C(=O)N(C)[C@@H](Cc2ccccc2)C(=O)N1C [Example 3150] (HELM PEPTIDE1{[O=C(C[*:3])[*:2]].F.[meF].[CCCC[C@@H](C(=O)[*:2])N(C)[*:1]].[Sar].D.E.[meF].Y.[Sar].W.Y.L.C.G.[am]}$PEPTIDE1,PEPTIDE1,1:R3-14:R3$$$V2.0)
0.385 to 6.74		0.158 to 4.71	CCCC[C@H]1C(=O)N(C)[C@@H](CCCC)C(=O)N[C@@H](CN)C(=O)N[C@H](C(=O)NCC(N)=O)CSCC(=O)N[C@@H](Cc2ccc(O)cc2)C(=O)N(C)[C@@H](C)C(=O)N[C@@H](CC(N)=O)C(=O)N2CCC[C@H]2C(=O)N[C@@H](CN)C(=O)N[C@@H](CC(C)C)C(=O)N2C[C@H](O)C[C@H]2C(=O)N[C@@H](Cc2c[nH]c3ccccc23)C(=O)N[C@@H](CO)C(=O)N[C@@H](Cc2csc3ccccc23)C(=O)N1C [Example 1161] ({CH2CO}-Y[NMeA]NP[Dap]L[Hyp]WS[Bta][NMeNle][NMeNle][Dap]CG-NH2; thioether N-14)

— patent publication US9850283B2, “Macrocyclic inhibitors of the PD-1/PD-L1 and CD80(B7-1)/PD-L1 protein/protein interactions” (BRISTOL-MYERS SQUIBB COMPANY, priority 2013, dated 2017)
